Patent US4686103A, “Method of managing cattle breeding herds” (Iowa State University Research Foundation, Inc., priority 1985, dated 1987)
Where two headings read alike, the source gives them in different places.

Assays:
[1] = system: first-calf crossbred beef heifers; test: Induction of parturition with relaxin in combination with dexamethasone or cloprostenol; assay type: in vivo, cattle; settings: for Interval between treatment and calving: mean ± SE
Source text: Crossbred beef heifers were bred by artificial insemination and assigned randomly to treatment groups on day 268 of pregnancy. Blood samples were collected daily for radioimmunoassay of relaxin, progesterone, estrone and 17β-estradiol. Daily measures were obtained of pelvic dimensions and cervical dilation during the prepartum and postpartum periods. On day 272, heifers were given relaxin alone, or in combination with a prostaglandin (e.g., cloprostenol) or a glucocorticoid (e.g., dexamethasone).
On day 272, 10 days before expected parturition, dexamethasone (20 mg) was administered intramuscularly (im) to 30 first-calf crossbred beef heifers. Relaxin (3,000 Units) was administered either at the same time or 24 h later either im or infused into the cervical os. The relaxin was dissolved in phosphate buffer saline (PBS) for im injection and in PBS plus a sterile gel for infusion in the cervical os. Controls received the dexamethasone im plus either 1 ml PBS im or 1 ml PBS-gel vehicle infused into the cervical os. There were 5 heifers assigned randomly to each treatment group.
On day 272, cloprostenol (500 μg) was administered im to 30 first-calf crossbred beef heifers. Relaxin (3,000 Units) wad administered either at the same time or 24 h later either im or infused into the cervical os. The relaxin was dissolved in PBS for injection and in PBS plus sterile gel for infusion into the cervical os. Controls received the cloprostenol im plus either 1 ml PBS im or 1 ml PBS-gel vehicle infused into the cervical os. There were 5 heifers assigned randomly to each treatment group.

[2] = system: first- and second-calf beef heifers; test: Induction of parturition with cloprostenol and relaxin or PBS im; assay type: in vivo, cattle; settings: for Animals with placenta retained ≥24 h / Ease of calving: day 272; for Interval between treatment and calving: day 272, mean ± SE
Experimental: The effect of cloprostenol and relaxin or PBS given im on induction or parturition was determined in 16 first-calf and 25 second-calf beef heifers. The 41 heifers were given cloprostenol im plus relaxin or PBS im on day 272 of pregnancy.

primiparous beef heifers [3] = test: Relaxin-induced parturition in beef heifers, intracervical infusion on day 278; assay type: in vivo, cattle; settings: for Day of calving: day of gestation, mean ± SE
Source text: Forty-seven crossbred beef heifers approaching their first calving were used in this study. All heifers were bred by artificial insemination at estrus (day 0); pregnancy lasts approximately 283 days. Heifers calved at an average age of 25^± 1 months (± standard error, SE). Heifers were maintained under pasture conditions during the spring, summer and fall throughout gestation. Mixed silage (6.8 kg/animal/day) supplemented the hay fed during the winter. During the month before calving, corn (2/3 kg/animal/day) and mixed silage (9.0 kg/animal/day) were fed in addition to the ad libitum supply of hay.
(§1) Beginning on day 270 of gestation, the animals were assigned randomly to one of three treatment groups; gel vehicle-treated controls, Number (N)=16; single relaxin-treated heifers, N=14; and double relaxin-treated heifers, N=17. A daily blood sample (10 ml) was obtained from a jugular vein via a hypodermic needle (16 gauge, 3.8-cm length). The blood was divided equally into two culture tubes containing 0.1 ml of heparinized saline (10 U/ml), maintained on ice, and centrifuged (2,000×g; 4° C.); plasma was decanted into two culture tubes, frozen, and stored at -20° C. for radioimmunoassay of progesterone, estrone (E1), and 17β-estradiol (17β-E2. Pelvic and cervical measurements were obtained immediately after the blood collection except on the day of treatment and postcalving, when these measurements were obtained at 12-hour intervals for 60 hours. Relaxin (1 mg, 3,000 U/mg) was infused 4 cm into the cervical os by a sterile insemination pipette on day 278.
Relaxin was extracted from ovaries of pregnant pigs and purified according to procedures described previously. See Schwabe et al., Rec. Prog. Horm. Res. (1978) 34:123. Purified porcine relaxin (3,000 U/mg) was suspended in 1 ml of vehicle prepared by mixing 0.01 molar phosphate buffer saline (M PBS), pH 7.0, and sterile gel (1 ml volume/volume "KY-4", a surgical lubricating jelly, Johnson and Johnson, Inc., New Brunswick, N.J.). Relaxin or gel vehicle was infused by means of a sterile insemination pipette after the cervical probe was withdrawn. A gloved hand was maintained in the reproductive tract of the heifer to guide the pipette through the cervical sphincter. Relaxin or the gel vehicle then was introduced and deposited 4 cm into the cervix.

cows = settings: cited from earlier work
primiparous beef heifers [4] = test: Relaxin effect on pelvic area and cervical dilatation in beef heifers; assay type: in vivo, cattle; settings: for cervical dilatation increase: within 24 h after administration
Experimental: as §1
Relaxin was extracted from ovaries of pregnant pigs and purified according to procedures described previously. See Schwabe et al., Rec. Prog. Horm. Res. (1978) 34:123. […]
Dilatation of the cervix was measured intravaginally by using a specially designed stainless-steel probe. […] The tips of the rods were expanded by rotating the conical swivel to a uniform resistance against the cervical wall, then withdrawn, and the separation of the rods was measured.
The area of the pelvic canal was calculated from determination of height and width by using a pelvimeter (Lane Manufacturing, Inc., Denver, Colo.) providing internal landmarks. Pelvic height was determined by measuring the linear distance from the midpoint of the dorsal surface of the symphysis pubis to the ventral surface of the prominent junction of the third and fourth sacral segments. Pelvic widths were determined by measuring the greatest linear distance between depression points in the shaft of the ilia at right angles to the vertical measurements. […]

[5] = system: estrogen-primed immature Swiss-Webster mice; settings: unit defined by interpubic ligament formation vs WL1000 standard; cited from earlier work
[6] = first-calf heifers treated day 272
[7] = first-calf heifers treated day 272, relaxin 3,000 Units, dexamethasone 20 mg or cloprostenol 500 μg
[8] = relaxin twice (2 × 3,000 U, 12 h apart)
[9] = overall: relaxin with Dex or Clo vs Dex or Clo plus PBS

Molecule: O=C(O)CCC/C=C\CC1C(O)CC(O)C1/C=C/C(O)COc1cccc(Cl)c1 (stereo not shown) [PBS & Clo, cloprostenol]
- Animals with placenta retained ≥24 h [1, 6]: 80%
- Ease of calving [1, 6]: 40%
- Interval between treatment and calving [1, 7]: 54 ± 3.4 h
- Interval between treatment and calving ([1]; first-calf heifers treated day 272, relaxin 3,000 Units, dexamethasone 20 mg or cloprostenol 500 μg, listed as cloprostenol plus PBS): 54 h
- Animals with placenta retained ≥24 h ([2]; 1st & 2nd calf heifers): 93%
- Ease of calving ([2]; 1st & 2nd calf heifers): 63%
- Interval between treatment and calving ([2]; 1st & 2nd calf heifers): 45 ± 6 h
- Animals with placenta retained ≥24 h ([2]; 1st calf heifers): 80%
- Ease of calving ([2]; 1st calf heifers): 40%
- Interval between treatment and calving ([2]; 1st calf heifers): 46 ± 5 h
- Animals with placenta retained ≥24 h ([2]; 2nd calf heifers): 100%
- Ease of calving ([2]; 2nd calf heifers): 75%
- Interval between treatment and calving ([2]; 2nd calf heifers): 44 ± 7 h

Molecule: C[C@@H]1C[C@H]2[C@@H]3CCC4=CC(=O)C=C[C@]4(C)[C@@]3(F)[C@@H](O)C[C@]2(C)[C@@]1(O)C(=O)CO [PBS + Dex, dexamethasone]
- Animals with placenta retained ≥24 h [1, 6]: 70%
- Ease of calving [1, 6]: 30%
- Interval between treatment and calving [1, 7]: 53 ± 2.6 h
- Interval between treatment and calving ([1]; first-calf heifers treated day 272, relaxin 3,000 Units, dexamethasone 20 mg or cloprostenol 500 μg, listed as dexamethasone plus PBS): 53 h

Molecule: relaxin
- incidence of retained placenta beyond 24 h postpartum (primiparous beef heifers [3]; all relaxin-treated heifers (once or twice)): 0 of 31
- Heifers calving within 48 h after treatment, % (primiparous beef heifers [3]; relaxin once (3,000 U)): 45%
- Mean interval of days between first treatment and calving (primiparous beef heifers [3]; relaxin once (3,000 U)): 2.5 days
- Day of calving (primiparous beef heifers [3]; relaxin once (3,000 U) into cervical os): 280.5 ± 0.8
- Heifers calving within 48 h after treatment, No. (primiparous beef heifers [3]; relaxin once (3,000 U), 14 heifers): 6
- calved earlier than PBS-gel vehicle-treated heifers, average (primiparous beef heifers [3]; relaxin twice): 3.3 days
- Heifers calving within 48 h after treatment, % (primiparous beef heifers [3]; [8]): 88%
- Mean interval of days between first treatment and calving (primiparous beef heifers [3]; [8]): 2.0 days
- Day of calving (primiparous beef heifers [3]; relaxin twice (2 × 3,000 U, 12 h apart) into cervical os): 278.6 ± 1.2
- Heifers calving within 48 h after treatment, No. (primiparous beef heifers [3]; relaxin twice (2 × 3,000 U, 12 h apart), 17 heifers): 15
- heifers calving within 24 h after treatment (primiparous beef heifers [3]; relaxin-treated group vs PBS-gel vehicle, P<0.001): more heifers calving
- duration of gestation (primiparous beef heifers [3]; relaxin-treated heifers vs PBS-gel vehicle controls, P<0.05): reduced
- Animals with placenta retained ≥24 h [1, 9]: 23%
- Ease of calving [1, 9]: 62%
- Interval between treatment and calving ([1]; overall: relaxin with Dex or Clo vs Dex or Clo plus PBS, 60 first-calf heifers): 34 ± 2.8 h
- Interval between treatment and calving ([1]; overall: relaxin with Dex or Clo vs Dex or Clo plus PBS, 60 first-calf heifers, listed as relaxin): 34 h
- duration of pregnancy (cows; 3000 U/mg, four days before expected parturition): did not significantly reduce
- cervical dilation (cows; cows, a few days before expected parturition): induce cervical dilation
- duration of pregnancy (cows; heifers given relaxin intracervically on three consecutive days): Some shortening of pregnancy
- pelvic area (primiparous beef heifers [4]; 12 h after treatment, all relaxin-treated heifers, P<0.05): marked increases
- cervical dilatation increase (primiparous beef heifers [4]; relaxin once): 526%
- cervical dilatation increase (primiparous beef heifers [4]; relaxin twice): 634%
- relaxin potency [5]: 3000 Units/mg
